Experimental data published in the NIST ThermoML archive (doi:10.1016/j.jct.2004.09.021).

How the values were obtained:
[1] = 101 kPa, Liquid
[2] = refractive index (Na D-line) (dimensionless); details: 101.33 kPa, Liquid
[3] = xn = mol fraction of the nth substance listed; details: 101 kPa, Liquid
[4] = refractive index (Na D-line) (dimensionless); xn = mol fraction of the nth substance listed; details: 101 kPa, Liquid

CCCCCCCCCCCC [dodecane]
Details	mass density, 293.15 K [kg/m3]	mass density, 298.15 K [kg/m3]	mass density, 303.15 K [kg/m3]	refractive index, 293.15 K	refractive index, 298.15 K	refractive index, 303.15 K	viscosity, 293.15 K [mPa·s]	viscosity, 298.15 K [mPa·s]	viscosity, 303.15 K [mPa·s]
[1]	748.78	745.14	741.52	–	–	–	1.487	1.373	1.25
[2]	–	–	–	1.421	1.4172	1.4135	–	–	–

CCCCCCCCCC [decane]
Details	mass density, 293.15 K [kg/m3]	mass density, 298.15 K [kg/m3]	mass density, 303.15 K [kg/m3]	refractive index, 293.15 K	refractive index, 298.15 K	refractive index, 303.15 K	viscosity, 293.15 K [mPa·s]	viscosity, 298.15 K [mPa·s]	viscosity, 303.15 K [mPa·s]
[1]	729.91	726.16	722.36	–	–	–	0.9169	0.8512	0.7898
[2]	–	–	–	1.4148	1.4118	1.4089	–	–	–

CCCCCCCCC [nonane]
Details	mass density, 293.15 K [kg/m3]	mass density, 298.15 K [kg/m3]	mass density, 303.15 K [kg/m3]	refractive index, 293.15 K	refractive index, 298.15 K	refractive index, 303.15 K	viscosity, 293.15 K [mPa·s]	viscosity, 298.15 K [mPa·s]	viscosity, 303.15 K [mPa·s]
[1]	717.59	713.71	709.81	–	–	–	0.7136	0.6715	0.6307
[2]	–	–	–	1.404	1.4027	1.4002	–	–	–

COc1ccccc1 [anisole]
Details	mass density, 293.15 K [kg/m3]	mass density, 298.15 K [kg/m3]	mass density, 303.15 K [kg/m3]	refractive index, 293.15 K	refractive index, 298.15 K	refractive index, 303.15 K	viscosity, 293.15 K [mPa·s]	viscosity, 298.15 K [mPa·s]	viscosity, 303.15 K [mPa·s]
[1]	993.81	989.15	984.42	–	–	–	1.085	1.017	0.9285
[2]	–	–	–	1.5161	1.5141	1.5129	–	–	–

CCCCCCCC [octane]
Details	mass density, 293.15 K [kg/m3]	mass density, 298.15 K [kg/m3]	mass density, 303.15 K [kg/m3]	refractive index, 293.15 K	refractive index, 298.15 K	refractive index, 303.15 K	viscosity, 293.15 K [mPa·s]	viscosity, 298.15 K [mPa·s]	viscosity, 303.15 K [mPa·s]
[1]	702.61	698.57	694.56	–	–	–	0.5464	0.5123	0.483
[2]	–	–	–	1.3965	1.3947	1.3926	–	–	–

CCCCCC [hexane]
Details	mass density, 293.15 K [kg/m3]	mass density, 298.15 K [kg/m3]	mass density, 303.15 K [kg/m3]	refractive index, 293.15 K	refractive index, 298.15 K	refractive index, 303.15 K	viscosity, 293.15 K [mPa·s]	viscosity, 298.15 K [mPa·s]	viscosity, 303.15 K [mPa·s]
[1]	659.5	654.96	650.42	–	–	–	0.3114	0.2974	0.2838
[2]	–	–	–	1.3759	1.3732	1.3709	–	–	–

COc1ccccc1 [anisole] + CCCCCCCC
Details	mass density, 293.15 K [kg/m3]	mass density, 298.15 K [kg/m3]	mass density, 303.15 K [kg/m3]	refractive index, 293.15 K	refractive index, 298.15 K	refractive index, 303.15 K	viscosity, 293.15 K [mPa·s]	viscosity, 298.15 K [mPa·s]	viscosity, 303.15 K [mPa·s]
[3], x1 = 0.1031	722.82	718.75	714.63	–	–	–	0.5523	0.5195	0.4917
[3], x1 = 0.2253	749.02	744.78	740.6	–	–	–	0.568	0.5349	0.5042
[3], x1 = 0.3001	766.32	762.01	757.77	–	–	–	0.5825	0.5446	0.5166
[3], x1 = 0.4	791.02	786.68	782.37	–	–	–	0.6136	0.5719	0.5434
[3], x1 = 0.5092	820.49	816.09	811.7	–	–	–	0.6541	0.6157	0.5779
[3], x1 = 0.5998	847.08	842.65	838.17	–	–	–	0.7026	0.6542	0.6162
[3], x1 = 0.6977	878.22	873.72	869.19	–	–	–	0.7639	0.7153	0.6729
[3], x1 = 0.7998	913.74	909.15	904.54	–	–	–	0.8456	0.7845	0.7453
[3], x1 = 0.8975	950.96	946.32	941.63	–	–	–	0.9497	0.8917	0.8289
[3], x1 = 1	993.81	989.15	984.42	–	–	–	1.085	1.017	0.9285
[4], x1 = 0.106	–	–	–	1.405	1.4029	1.4004	–	–	–
[4], x1 = 0.231	–	–	–	1.4158	1.4136	1.4114	–	–	–
[4], x1 = 0.307	–	–	–	1.423	1.4208	1.4187	–	–	–
[4], x1 = 0.3991	–	–	–	1.4324	1.4303	1.4283	–	–	–
[4], x1 = 0.503	–	–	–	1.444	1.4419	1.44	–	–	–
[4], x1 = 0.6	–	–	–	1.4562	1.454	1.4522	–	–	–
[4], x1 = 0.69	–	–	–	1.4683	1.4661	1.4643	–	–	–
[4], x1 = 0.796	–	–	–	1.4838	1.4815	1.4797	–	–	–
[4], x1 = 0.8822	–	–	–	1.4973	1.495	1.4933	–	–	–
[4], x1 = 1	–	–	–	1.5161	1.5141	1.5129	–	–	–

COc1ccccc1 [anisole] + CCCCCC
Details	mass density, 293.15 K [kg/m3]	mass density, 298.15 K [kg/m3]	mass density, 303.15 K [kg/m3]	refractive index, 293.15 K	refractive index, 298.15 K	refractive index, 303.15 K	viscosity, 293.15 K [mPa·s]	viscosity, 298.15 K [mPa·s]	viscosity, 303.15 K [mPa·s]
[3], x1 = 0.0993	688.1	683.56	678.98	–	–	–	0.3336	0.3159	0.305
[3], x1 = 0.1959	716.85	712.32	707.69	–	–	–	0.3594	0.3451	0.3257
[3], x1 = 0.3008	749.04	744.42	739.83	–	–	–	0.3971	0.3776	0.3565
[3], x1 = 0.3998	780.42	775.78	771.15	–	–	–	0.4376	0.4157	0.396
[3], x1 = 0.5045	814.71	810.08	805.39	–	–	–	0.4958	0.4701	0.4451
[3], x1 = 0.5936	844.84	840.19	835.52	–	–	–	0.5596	0.529	0.5002
[3], x1 = 0.6834	876.15	871.52	866.76	–	–	–	0.6392	0.6028	0.5681
[3], x1 = 0.7909	914.94	910.25	905.45	–	–	–	0.756	0.71	0.6685
[3], x1 = 0.8975	954.65	949.92	945.31	–	–	–	0.9044	0.8483	0.7899
[3], x1 = 1	993.81	989.15	984.42	–	–	–	1.085	1.017	0.9285
[4], x1 = 0.095	–	–	–	1.3873	1.3844	1.3819	–	–	–
[4], x1 = 0.193	–	–	–	1.399	1.3952	1.3931	–	–	–
[4], x1 = 0.288	–	–	–	1.4109	1.4081	1.4061	–	–	–
[4], x1 = 0.391	–	–	–	1.4243	1.4217	1.4197	–	–	–
[4], x1 = 0.5121	–	–	–	1.4408	1.4382	1.4365	–	–	–
[4], x1 = 0.5942	–	–	–	1.4525	1.45	1.4483	–	–	–
[4], x1 = 0.678	–	–	–	1.4651	1.4626	1.4609	–	–	–
[4], x1 = 0.779	–	–	–	1.4807	1.4783	1.4767	–	–	–
[4], x1 = 0.881	–	–	–	1.497	1.4946	1.4931	–	–	–
[4], x1 = 1	–	–	–	1.5161	1.5141	1.5129	–	–	–

CCCCCCC [heptane] + COc1ccccc1
x2 = 0
Details	mass density, 293.15 K [kg/m3]	mass density, 298.15 K [kg/m3]	mass density, 303.15 K [kg/m3]	refractive index, 293.15 K	refractive index, 298.15 K	refractive index, 303.15 K	viscosity, 293.15 K [mPa·s]	viscosity, 298.15 K [mPa·s]	viscosity, 303.15 K [mPa·s]
[3]	683.96	679.77	675.5	–	–	–	0.4127	0.3909	0.3702
[4]	–	–	–	1.3872	1.3855	1.3827	–	–	–

CCCCCCCCCCCC [dodecane] + COc1ccccc1
x2 = 0
Details	mass density, 293.15 K [kg/m3]	mass density, 298.15 K [kg/m3]	mass density, 303.15 K [kg/m3]	refractive index, 293.15 K	refractive index, 298.15 K	refractive index, 303.15 K	viscosity, 293.15 K [mPa·s]	viscosity, 298.15 K [mPa·s]	viscosity, 303.15 K [mPa·s]
[3]	748.78	745.14	741.52	–	–	–	1.487	1.373	1.25
[4]	–	–	–	1.421	1.4172	1.4135	–	–	–

CCCCCCC [heptane]
Details	mass density, 293.15 K [kg/m3]	mass density, 298.15 K [kg/m3]	mass density, 303.15 K [kg/m3]	refractive index, 293.15 K	refractive index, 298.15 K	refractive index, 303.15 K	viscosity, 293.15 K [mPa·s]	viscosity, 298.15 K [mPa·s]	viscosity, 303.15 K [mPa·s]
[1]	683.96	679.77	675.5	–	–	–	0.4127	0.3909	0.3702
[2]	–	–	–	1.3872	1.3855	1.3827	–	–	–

CCCCCC [hexane] + COc1ccccc1
x2 = 0
Details	mass density, 293.15 K [kg/m3]	mass density, 298.15 K [kg/m3]	mass density, 303.15 K [kg/m3]	refractive index, 293.15 K	refractive index, 298.15 K	refractive index, 303.15 K	viscosity, 293.15 K [mPa·s]	viscosity, 298.15 K [mPa·s]	viscosity, 303.15 K [mPa·s]
[3]	659.5	654.96	650.42	–	–	–	0.3114	0.2974	0.2838
[4]	–	–	–	1.3759	1.3732	1.3709	–	–	–
